Here are results for 17 compounds from PubChem BioAssay (NCI).

What all share (test): growth of human tumour cells (NCI), 48 h
The subject of assay [1] is SNB-19 CNS.
The test system of assay [2] is IGROV1 ovarian.
In assay [3] the test system is 786-0 renal.
The subject of assay [4] is SK-MEL-5 melanoma.
Assay [5] concerns SK-OV-3 ovarian.
The test system of assay [6] is SN12C renal.
Assay [7] relates to SF-268 CNS.
In assay [8] the test system is SF-539 CNS.
In assay [9] the test system is DU-145 prostate.
Assay [10] has as its system MCF7 breast.

Several values for one entry are separate records, joined by “and”; a condition that tells them apart may be missing. Identical values can stand only once.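 Test compounds were applied to cells in 96-well plates for 48 hours at 5 doses. GI50 = concentration required for 50% inhibition of growth. TGI: concentration producing complete growth inhibition.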

In the case of `O=S(=O)(O)O.[NH-]C1CCCCC1[NH-].[Pt+2]` (stereo not drawn), the GI50 was greater than 100 µM in assay [1]; greater than 100 µM in assay [2]; 40.7 µM in [3]; 42.3 µM in [4]; greater than 100 µM in assay [5]; greater than 100 µM in assay [6]. For the same compound, the GI50 in assay [7] and in assay [8] was greater than 100 µM each time. Also, the TGI in assay [1], in assay [2], in assay [3], in [4], in assay [5] and in [6] was greater than 100 µM throughout. The TGI in [7] and in assay [8] was greater than 100 µM each time.

Turning to `C=C1C(=O)O[C@H]2[C@H]1CC/C(COC(=O)CCCCC(=O)OC/C1=C/CC[C@@]3(C)O[C@H]3[C@H]3OC(=O)C(=C)[C@@H]3CC1)=C\CC[C@@]1(C)O[C@@H]21`, the GI50 in [1] was 5.99 µM; in assay [3], 1.69 µM; in assay [4] it was 2.6 µM; in assay [5], 33.4 µM; in [6], 2.62 µM; in assay [7], 3.02 µM. For the same compound, the GI50 in assay [8] is 2.01 µM; in assay [9], 3.09 µM. In addition, the TGI was greater than 100 µM in assay [1]; 3.86 µM in assay [3]; 7.73 µM in [4]; greater than 100 µM in [5]; greater than 100 µM in assay [6]; greater than 100 µM in assay [7]. Further, the TGI in assay [8] was 4.96 µM; in assay [9] it was greater than 100 µM.

As for `Cc1cc(O)cc2oc(=O)c3c(O)cc(O)cc3c12`, the TGI in assay [1] was 76 µM; in assay [2], 74.7 µM; in [3], greater than 100 µM; in [4] it was greater than 100 µM; in [5] it was 45.5 µM; in [6], greater than 100 µM. The figures for the TGI in [7] and in assay [8] were 76.5 µM and 49.2 µM, respectively.

Consider `CCOC12OC3=C(CC1CC1=C(CCC1=O)O2)C(=O)CC3` (stereo not drawn), for which the TGI in assay [1], in assay [2], in [3], in assay [4], in assay [5] and in [6] was greater than 100 µM each time. In addition, the TGI in [7] and in assay [8] was greater than 100 µM each time.

`CN(C)CCNC(=O)c1cc2ccccc2c2nc3ccccc3nc12`: the TGI in assay [1] was 8.2 µM; in assay [2], greater than 20.7 µM; in assay [3], greater than 38.2 µM; in [4] it was 5.5 µM; in assay [5] it was greater than 31.6 µM; in assay [6], 3.89 µM. The TGI in assay [7] was 2.02 µM; in assay [8] it was 1.55 µM.

On to `CC(=O)[CH-]C(=O)c1ccccc1.CC(=O)[CH-]C(=O)c1ccccc1.CC[O-].CC[O-].[Zr+4]`, for which the GI50 in assay [1], in assay [2], in assay [3], in assay [4], in assay [5] and in [6] was greater than 100 µM in each case. For the same compound, the GI50 in assay [7] and in [8] was greater than 100 µM each time. Further, the TGI in assay [1], in [2], in [3], in assay [4], in assay [5] and in assay [6] was greater than 100 µM each time. Moreover, the TGI in [7] and in assay [8] was greater than 100 µM each time.

Take `Oc1ccccc1-c1nn(CNc2cccc(Cl)c2)c(=S)o1`: the GI50 in [1] was greater than 100 µM; in assay [10], 37.9 µM; in assay [2] it was 81.5 µM; in [3] it was 67.3 µM; in assay [4], 89.2 µM; in assay [5], greater than 100 µM. The GI50 was greater than 100 µM in [6], 59.4 µM in assay [7] and 27.6 µM in assay [8]. Moreover, the TGI in [1], in assay [10], in [2], in assay [3], in assay [4] and in assay [5] was greater than 100 µM each time. Further, the TGI in assay [6], in assay [7] and in [8] was greater than 100 µM throughout.

For `CC(C)=CCC[C@H](C)[C@@H]1CC[C@]2(C)C3CC[C@]4(OC4(C)C)C(CCCO)[C@]3(C)CC[C@@]12C` (stereo partly drawn), the GI50 is 24 µM in [1]; 18.1 µM in assay [10]; 81.7 µM in [2]; 22.4 µM in assay [3]; 22.7 µM in assay [4]; 17.8 µM in [7]. In addition, the results for the GI50 in assay [8] and in [9] were 23.6 µM and 32.9 µM, respectively. For the same compound, the TGI was 62.3 µM in assay [1]; 43.6 µM in assay [10]; greater than 100 µM in assay [2]; 48.5 µM in assay [3]; 42.9 µM in assay [4]; 36 µM in assay [7]. The TGI in [8] was 50.1 µM; in assay [9] it was greater than 100 µM.

Take `Cc1ccc(NC(=O)CCC(CC(=O)C(C)(C)C)=NNC(=O)C(=O)NN)cc1C`: the TGI in [1], in assay [2], in [3], in assay [4], in assay [5] and in [6] was greater than 100 µM each time. Also, the TGI in assay [7] and in assay [8] was greater than 100 µM in each case.

Take `CCC[CH2][Sn]1([CH2]CCC)[O]C(=O)c2cc(I)cc(I)c2[O]1`: the GI50 in assay [1] is 1.27 µM; in assay [2], 1.81 µM; in [3], 1.47 µM; in assay [4], 1.54 µM; in [5], 2.09 µM; in [6] it was 1.42 µM. For the same compound, the GI50 in assay [7] is 1.29 µM; in assay [8], 1.16 µM. The TGI in assay [1] was determined as 2.55 µM; in [2], 3.36 µM; in assay [3], 2.8 µM; in [4], 2.88 µM; in [5], 4.65 µM; in [6] it was 2.96 µM. The TGI was 2.89 µM in assay [7] and 2.44 µM in assay [8].

Take `Cc1c(Cl)ccc2c1NC(=O)C2(O)C(C(=O)c1ccccc1)c1ccccc1` (stereo not drawn): the TGI is greater than 100 µM in assay [1]; greater than 100 µM in [2]; greater than 100 µM in assay [3]; 60 µM in assay [4]; greater than 100 µM in assay [5]; greater than 100 µM in assay [6]. For the same compound, the TGI in assay [7] and in assay [8] was greater than 100 µM throughout.

In the case of `C/C(=C\C(C)COCc1ccccc1)[C@H](COCc1ccccc1)OCc1ccccc1` (stereo partly drawn), the TGI in [1], in assay [2], in assay [3], in [4], in assay [5] and in assay [6] was greater than 100 µM throughout. The TGI in assay [7] and in assay [8] was greater than 100 µM each time.

As for `O=c1cc(-c2cccc(C(F)(F)F)c2)[nH]c2cc3c(cc12)OCO3`, the GI50 in [1] was 0.427 µM; in assay [10], 0.95 µM; in assay [3] it was 0.902 µM; in assay [4], 1.27 µM; in assay [5], 0.326 µM; in [6], 0.735 µM. In addition, the GI50 in [8] was 0.483 µM. For the same compound, the TGI in assay [1] was 50 µM and 7.58 µM; in assay [10], 50 µM and > 100 µM; in assay [2], 50 µM; in assay [3], 7.91 µM and 27 µM; in [4], 4.41 µM; in [5] it was 29.1 µM and 16.8 µM. The TGI is 50 µM and > 100 µM in [6]; 2.53 µM and 6.6 µM in assay [8].

With `Cc1ccc(NC(=O)C(=O)C2C(=O)N(c3ccccc3)N=C2N)cc1C` (stereo not drawn), the TGI in assay [1], in [2], in [3], in [4], in assay [5] and in assay [6] was greater than 100 µM in each case. Besides, the TGI in assay [7] and in assay [8] was greater than 100 µM each time.

Turning to `COc1cc(/C=C2\[C@H]3c4c(c(OC)c(C)c(OC)c4OC)C[C@@H](C(=O)N2Cc2ccccc2)N3C(=O)OCC(C)C)c(OC)c(C)c1OC`, the TGI in [1], in assay [2], in assay [3], in assay [4], in assay [5] and in assay [6] was greater than 100 µM throughout. Besides, the TGI in assay [7] and in [8] was greater than 100 µM each time.

As for `[O-]c1c2c(nn1-c1ccccc1)c1ccccc1c[n+]2Cc1ccccc1`, the TGI in assay [1], in assay [2], in [3], in assay [4], in assay [5] and in [6] was greater than 100 µM each time. The TGI in assay [7] and in [8] was greater than 100 µM in each case.

Turning to `CC(=O)OC(/C=C1/C=CC(=O)O1)COC(=O)c1ccccc1` (stereo not drawn), the TGI in assay [1], in assay [2], in [3], in [4], in [5] and in assay [6] was greater than 31.2 µM each time. The TGI in assay [7] and in assay [8] was greater than 31.2 µM each time.
